According to ChEMBL document CHEMBL1201862, “PubChem BioAssay data set” (2004):
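96-well plates; 48 h exposure; 5 concentrations. Endpoints by linear interpolation between flanking doses. Not reached: highest tested concentration assigned. GI50: concentration for 50% inhibition of growth.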 Calls of active or inactive are those of the source. Cut-off read from the data, not from the text of the source: active = GI50 up to about 1.1 µM and inactive = higher.

Key:
Assay in all cases: DTP human tumour cell line panel, 48 h
[1] = tested on: DLD-1
[2] = tested on: DMS-114
[3] = tested on: LXFL 529
[4] = tested on: M19-MEL
[5] = tested on: RXF 631
[6] = tested on: XF498
[7] = tested on: HOP-18
[8] = tested on: BT-549
[9] = tested on: T47D

| Structure (SMILES) | GI50 [1] | GI50 [2] | GI50 [3] | GI50 [4] | GI50 [5] | GI50 [6] | GI50 [7] | GI50 [8] | GI50 [9] |
| --- | --- | --- | --- | --- | --- | --- | --- | --- | --- |
| COc1ccc(C(=O)C(CO)Oc2ccccc2OC)cc1OC (configuration not stated) | > 100 µM (inactive) | > 100 µM (inactive) | > 100 µM (inactive) | > 100 µM (inactive) | > 100 µM (inactive) | > 100 µM (inactive) |  |  |  |
| O=S1(=O)[C@H](c2ccccc2)c2c(-c3ccccc3)sc(-c3ccccc3)c2[C@@H]1c1ccccc1 | > 100 µM (inactive) | > 100 µM (inactive) | 88.1 µM (inactive) | > 100 µM (inactive) |  |  | 77.1 µM (inactive) |  |  |
| O=C(Nc1ccc(Cl)cc1)c1cc([N+](=O)[O-])ccc1O | 3.71 µM (inactive) | 2.35 µM (inactive) | 2.9 µM (inactive) | 3.52 µM (inactive) | 2.9 µM (inactive) | 2.82 µM (inactive) | 1.58 µM (inactive) |  |  |
| CC(C)(C)c1cc(C#N)c2c(c1)C(=O)OC2(c1ccccc1)c1ccccc1C#N (configuration not stated) | > 100 µM (inactive) | > 100 µM (inactive) | > 100 µM (inactive) | > 100 µM (inactive) |  | > 100 µM (inactive) | > 100 µM (inactive) |  |  |
| CC(C)(C)OC(=O)NC1CCC[C@H]1O (some centres not stated) | > 100 µM (inactive) | > 100 µM (inactive) | > 100 µM (inactive) | > 100 µM (inactive) | > 100 µM (inactive) | > 100 µM (inactive) |  |  |  |
| N=C(N)N/N=C/c1oc(-c2ccc(S(=O)(=O)O)o2)c(-c2ccc(S(=O)(=O)O)o2)c1[N+](=O)[O-] | > 100 µM (inactive) | > 100 µM (inactive) | > 100 µM (inactive) | > 100 µM (inactive) |  |  | > 100 µM (inactive) |  |  |
| C/C(=C\CBr)CCC(Br)C(C)(C)Cl (configuration not stated) | > 100 µM (inactive) | > 100 µM (inactive) | > 100 µM (inactive) | > 100 µM (inactive) |  |  | > 100 µM (inactive) |  |  |
| Cc1cc(N(CCC#N)CCC#N)ccc1/C=C(\N=[N+]=[N-])C(=O)NC(=O)COc1ccccc1 | > 100 µM (inactive) | > 100 µM (inactive) | > 100 µM (inactive) |  | > 100 µM (inactive) | 34.7 µM (inactive) | > 100 µM (inactive) |  |  |
| O=C(c1ccc(Cl)cc1)c1ccc(OCCSCCCCCCCCCCSCCOc2ccc(C(=O)c3ccc(Cl)cc3)cc2)cc1 | > 100 µM (inactive) |  |  | > 100 µM (inactive) | > 100 µM (inactive) |  |  |  |  |
| C=C1C(=O)OC2CCCCC3OC3C12 (configuration not stated) | 7.83 µM (inactive) |  | 7.26 µM (inactive) | 11.6 µM (inactive) | 6.19 µM (inactive) | 12 µM (inactive) | 11 µM (inactive) |  |  |
| O=C(NC1CCCCC1)c1c(O)[nH]c(=S)[nH]c1=O | > 100 µM (inactive) | 88.5 µM (inactive) | > 100 µM (inactive) | > 100 µM (inactive) | > 100 µM (inactive) |  | > 100 µM (inactive) |  |  |
| COc1cc(C(=O)C/C(CCC(=O)Nc2ccc(Cl)cc2C)=N/NC(=O)C(N)=O)ccc1O | > 100 µM (inactive) | > 100 µM (inactive) | > 100 µM (inactive) | > 100 µM (inactive) |  | > 100 µM (inactive) | > 100 µM (inactive) |  |  |
| Cc1cc(NC(=O)NC(=O)c2ccccc2N)ccc1Oc1ncc(Br)cn1 | < 0.0161 µM (active) | < 0.01 µM (active) | < 0.0179 µM (active) | 0.0231 µM (active) |  | 0.0334 µM (active) | 28.8 µM (inactive) | < 0.01 µM (active) | 0.359 µM (active) |
| Cc1ccc(NC(=O)C(=O)C(C(=O)c2ccc3ccccc3c2)C2OC(=O)c3ccccc32)c(C)c1 (configuration not stated) | 12.6 µM (inactive) | 7.6 µM (inactive) | 8.09 µM (inactive) | 6.38 µM (inactive) | 4.68 µM (inactive) | 0.485 µM (active) | 12.1 µM (inactive) |  |  |
| COc1cccc(/C=N\NC(=O)C(C)SC(C)C(=O)N/N=C/c2cccc(OC)c2)c1 (configuration not stated) | 58.2 µM (inactive) | 19.4 µM (inactive) | 33.9 µM (inactive) | > 63.4 µM (inactive) |  | 53.1 µM (inactive) |  |  |  |
| COc1cc(OC(C)=O)cc2c(OC(C)=O)ccc(OC(C)=O)c12 |  |  | > 100 µM (inactive) |  |  |  |  |  |  |
| CCCCn1c(-c2ccccc2)cs/c1=N\NC(=O)Cn1c(C)nc2ccccc21 | > 100 µM (inactive) |  | 25.1 µM (inactive) | 30.4 µM (inactive) |  | 31.9 µM (inactive) | > 100 µM (inactive) |  |  |
| COc1ccc(CCNC(=O)Cc2ccccc2CO)cc1OC |  |  |  |  |  |  |  | > 100 µM (inactive) | > 100 µM (inactive) |
| O=C(CSC(=S)N1CCCCC1)Nc1nc2c(s1)CCCC2 | 26.9 µM (inactive) | 53.2 µM (inactive) | 32.1 µM (inactive) | 32.9 µM (inactive) |  | 19.3 µM (inactive) |  |  |  |
| Cc1cccc(Cl)c1NC(=O)/C=C/c1ccccc1 |  |  |  |  |  |  |  | > 100 µM (inactive) | 36.7 µM (inactive) |
